We go through seven molecules from US20230382940A1, “ANTIVIRAL COMPOUNDS AND METHODS OF MAKING AND USING THE SAME” (Gilead Sciences, Inc., priority 2022, published 2023).

For orientation: EC50 means the midpoint of the concentration-response curve.

The nature of data set [1]: GI S9 stability, rat, Example Y. It counts as in vitro ADME. Particulars: pooled intestinal S9 fractions; rat intestinal S9, 1.0 mg/mL protein, 2 μM compound, pH 7.4; read-out: GIS9 Rat T½ (per Ex. Y). As for the experimental part:
(§1) Example Y: GI S9 Stability Data
(§2) Stock solutions of test compounds in dimethyl sulfoxide (DMSO) having a final concentration of 10 mM were prepared and used in all experiments. Sekisui XenoTech (Kansas City, KS) provided pooled intestinal S9 fractions. All other chemicals were purchased from Sigma-Aldrich (St. Louis, MO) or VWR (West Chester, PA). Internal Standard/Quench (IS/Q) used to stop reactions was 100 nM labetalol in (by volume) methanol (10%) and acetonitrile (90%).
(§3) Stability in Intestinal S9 Fractions: Duplicate aliquots of test compound or positive control substrate were added to S9 stock diluted with phosphate buffered saline (137 mM NaCl, 2.7 mM KCl, 10 mM phosphate buffer), pH 7.4, to obtain a protein concentration of 1.0 mg/mL. The metabolic reactions were initiated by the addition of the substrates to the S9 reaction mixture to a final concentration of 2 μM. At 0, 10, 20, 30, 60 and 120 min, 25 μL aliquots of the reaction mixture were transferred to plates containing 225 μl of IS/Q solution. After quenching, the plates were centrifuged at 3000×g for 30 minutes. 150 μL aliquots of each supernatant were dried down then reconstituted with 300 μL water. Aliquots (10 μL) of the prepared samples were analyzed on a Thermo Q-Exactive mass spectrometer as described below.
(§4) Liquid Chromatography—Mass Spectrometry: Quantification of test compounds and control substrate was performed by analyte/internal standard peak area ratio (PAR) values measured on a Thermo Q-Exactive mass spectrometer coupled to a Dionex UltiMate 3000 HPLC with a Leap Technologies HTC PAL autosampler. The column used for analysis was a Waters Acquity BEH C18 (1.7 μm particle size, 2.1×50 mm). Mobile phase A consisted of 0.1% (v/v) formic acid in water. Mobile phase B consisted of 0.1% (v/v) formic acid in acetonitrile. Elution of analytes was achieved by a series of linear gradients varying the proportions of A and B. The mass spectrometer was calibrated on a weekly basis and mass tolerance of 5 ppm was used.
(§5) Metabolic stabilities in S9 fractions were determined by measuring the rates of disappearance of test compound and positive control substrate.
(§6) Data (% of substrate remaining) were plotted on a semi-log scale and fitted using an exponential decline model:
(§7) Ct=C0×e^−ln2/T1/2×t • Where Ct—% of substrate remaining at time=t; C0—% of substrate remaining at time=0; t—time; T1/2—half-life. • The Half-life (T1/2) is determined by the following equation: […]
(§8) Assuming a first-order reaction, the slope (k) is extrapolated from the aforementioned plotted data.

The nature of data set [2]: GI S9 stability, human, Example Y. Particulars: pooled intestinal S9 fractions; human intestinal S9, 1.0 mg/mL protein, 2 μM compound, pH 7.4; read-out: GIS9 Human T½ (per Ex. Y). It counts as in vitro ADME. How it is done:
as §1, §2, §3, §4, §5, §6, §7, §8

In data set [3] the test system is Respiratory syncytial virus recombinant with luciferase (RSV-Luc5). The experiment in a line: NHBE RSV-Luc5 384-well assay (EC50 RSVFLUC NHBE-384 v2), Example W. It counts as cell-based. Particulars: human respiratory syncytial virus, 72 h, read-out: EC50 RSV FLUC NHBE 384 V2 (per Ex. W). A digest of the protocol: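 Primary NHBE cells (passage 2), 5,000/well, infected with RSV-Luc5 at MOI 1 alongside 10-point 1:3 compound dilutions; 3 days at 37° C. Replication read by One-Glo luminescence, normalized to remdesivir (0%) and DMSO (100%); EC50 = concentration reducing replication by 50%, from non-linear regression.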

For `CC(C)(C)CCOC(=O)OC[C@@]1(C#N)O[C@@H](c2ccc3c(N)ncnn23)[C@H](O)[C@@H]1O` [Compound 35, ((2R,3S,4R,5S)-5-(4-aminopyrrolo[2,1-f][1,2,4]triazin-7-yl)-2-cyano-3,4-dihydroxytetrahydrofuran-2-yl)methyl (3,3-dimethylbutyl) carbonate], the half-life at 2 μM in data set [1] was 4 min; in data set [2], 19 min. Further, the EC50 in data set [3] was found to be 5.78 µM.
The like results for `CC[C@H](C)OC(=O)OC[C@@]1(C#N)O[C@@H](c2ccc3c(N)ncnn23)[C@H](O)[C@@H]1O` [Compound 4, ((2R,3S,4R,5S)-5-(4-aminopyrrolo[2,1-f][1,2,4]triazin-7-yl)-2-cyano-3,4-dihydroxytetrahydrofuran-2-yl)methyl ((S)-sec-butyl) carbonate] were, in that order, 10 min, 65 min and 9.85 µM.
Turning to `CC(C)(C)COC(=O)OC[C@@]1(C#N)O[C@@H](c2ccc3c(N)ncnn23)[C@H](O)[C@@H]1O` [Compound 2, ((2R,3S,4R,5S)-5-(4-aminopyrrolo[2,1-f][1,2,4]triazin-7-yl)-2-cyano-3,4-dihydroxytetrahydrofuran-2-yl)methyl neopentyl carbonate], the figures for the half-life at 2 μM in data set [1] and in data set [2] were 6 min and 23 min, respectively. Moreover, the EC50 in data set [3] amounted to 11.4 µM.
The like results for `CC(C)OC(=O)OC[C@@]1(C#N)O[C@@H](c2ccc3c(N)ncnn23)[C@H](O)[C@@H]1O` [Compound 11, ((2R,3S,4R,5S)-5-(4-aminopyrrolo[2,1-f][1,2,4]triazin-7-yl)-2-cyano-3,4-dihydroxytetrahydrofuran-2-yl)methyl isopropyl carbonate] were, in that order, 14 min, 104 min and 12 µM.
As for `N#C[C@]1(COC(=O)OCCc2ccccc2)O[C@@H](c2ccc3c(N)ncnn23)[C@H](O)[C@@H]1O` [Compound 5, ((2R,3S,4R,5S)-5-(4-aminopyrrolo[2,1-f][1,2,4]triazin-7-yl)-2-cyano-3,4-dihydroxytetrahydrofuran-2-yl)methyl phenethyl carbonate], the half-life at 2 μM in data set [1] turned out to be 4 min; in data set [2], 44 min. In addition, in data set [3], the concentration for a half-maximal effect (EC50) worked out at 12.5 µM.
Regarding `CC1(C)CC(OC(=O)OC[C@@]2(C#N)O[C@@H](c3ccc4c(N)ncnn34)[C@H](O)[C@@H]2O)C1` [Compound 37, ((2R,3S,4R,5S)-5-(4-aminopyrrolo[2,1-f][1,2,4]triazin-7-yl)-2-cyano-3,4-dihydroxytetrahydrofuran-2-yl)methyl (3,3-dimethylcyclobutyl) carbonate], the values for the half-life at 2 μM in data set [1] and in data set [2] were 4 min and 29 min, respectively. In addition, the EC50 in data set [3] turned out to be 7.44 µM.
The like results for `C[C@H]1CC[C@H](OC(=O)OC[C@@]2(C#N)O[C@@H](c3ccc4c(N)ncnn34)[C@H](O)[C@@H]2O)CC1` [Compound 40, ((2R,3S,4R,5S)-5-(4-aminopyrrolo[2,1-f][1,2,4]triazin-7-yl)-2-cyano-3,4-dihydroxytetrahydrofuran-2-yl)methyl ((1r,4R)-4-methylcyclohexyl) carbonate] were, in that order, 6 min, 36 min and 7.42 µM.
